Drawing on US20240132475A1, “SUBSTITUTED PYRAZOLYL COMPOUNDS AS MALT-1 INHIBITORS” (AURIGENE ONCOLOGY LIMITED, priority 2021, published 2024), this text covers IC50 and inhibition for 20 compounds.

For orientation: IC50 means the point on the concentration scale where inhibition reaches its midpoint. The inhibition is the percentage by which the read-out fell short of the control.

SMILES strings stand for the structures.

For this experiment, the target named is T1, MALT-1 (Isoform 1) (Homo sapiens, UniProt Q9UDY8).
T1 construct: using recombinant MALT-1 (Isoform 1, aa-840) generated in house; made in house
T1 sequence (Q9UDY8 1-824): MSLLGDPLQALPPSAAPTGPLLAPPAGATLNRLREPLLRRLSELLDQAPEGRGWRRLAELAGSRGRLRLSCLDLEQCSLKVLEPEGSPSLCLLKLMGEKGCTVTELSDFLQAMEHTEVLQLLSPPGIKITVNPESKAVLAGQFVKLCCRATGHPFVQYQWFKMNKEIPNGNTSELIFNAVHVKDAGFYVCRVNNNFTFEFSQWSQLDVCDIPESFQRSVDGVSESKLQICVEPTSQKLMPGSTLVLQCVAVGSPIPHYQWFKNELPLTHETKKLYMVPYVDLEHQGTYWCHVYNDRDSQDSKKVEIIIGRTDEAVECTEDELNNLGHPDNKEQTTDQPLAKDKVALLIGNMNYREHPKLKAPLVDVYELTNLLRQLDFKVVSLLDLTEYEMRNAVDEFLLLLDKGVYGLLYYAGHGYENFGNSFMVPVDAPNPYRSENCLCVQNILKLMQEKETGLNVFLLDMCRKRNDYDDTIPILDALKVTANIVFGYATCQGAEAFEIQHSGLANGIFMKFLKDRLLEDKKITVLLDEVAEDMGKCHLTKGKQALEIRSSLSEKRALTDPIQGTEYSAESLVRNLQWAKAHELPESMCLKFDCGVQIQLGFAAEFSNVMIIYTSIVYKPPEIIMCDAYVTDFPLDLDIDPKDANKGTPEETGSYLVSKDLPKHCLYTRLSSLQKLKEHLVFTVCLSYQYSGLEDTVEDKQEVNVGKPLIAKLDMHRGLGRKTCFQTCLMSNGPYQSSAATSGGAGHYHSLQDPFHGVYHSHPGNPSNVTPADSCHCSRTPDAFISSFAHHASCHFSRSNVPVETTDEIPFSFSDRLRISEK
Put plainly: MALT-1 (Isoform 1) enzyme fluorescent biochemical assay. Particulars: for IC50: dose-response, sigmoidal curve fit, reported as groups A, B, C; for inhibition at 1 µM: test compound 1 μM, recombinant MALT-1 1.5 nM, read-out: Percent Inhibition (1 μM). How it is done: The potency of compounds to inhibit MALT-1 (Isoform 1) enzyme was tested in a Fluorescent assay using recombinant MALT-1 (Isoform 1, aa-840) generated in house. The assay buffer was 50 mM HEPES (pH 7.5), 100 mM NaCl, 10 mM DTT, 1 mM EDTA, 0.9 M sodium citrate, 0.01% CHAPS. 1.5 nM of MALT-1 enzyme was incubated with test compounds ([…]) (1% DMSO) in the presence of buffer for 30 minutes at 30° C. The protease reaction was initiated by adding […] of AC-LRSR-MAC (Peptide International, USA) substrate and incubated for 240 min. After 240 min incubation, fluorescence emission of the samples at 460 nm was measured at an excitation of 355 nm. The percent inhibition was calculated using the following formula: […]. IC50 values were determined by fitting the dose-response data to sigmoidal curve fitting equation using Graph pad prism software V8.
ND represents Not Determined.

Turning to `O=C(Nc1ccnc(C(F)(F)F)c1)c1cnn(Cc2cccc(F)c2)c1C(F)(F)F` [Compound 19, 1-(3-fluorobenzyl)-5-(trifluoromethyl)-N-(2-(trifluoromethyl)pyridin-4-yl)-1H-pyrazole-4-carboxamide], the concentration for half-maximal inhibition (IC50) was above 1 µM and the inhibition at 1 µM amounted to 22%.
Consider `N#Cc1cc(NC(=O)c2cnn(Cc3ccccc3Cl)c2C(F)(F)F)cnc1-n1nccn1` [Compound 20, 1-(2-chlorobenzyl)-N-(5-cyano-6-(2H-1,2,3-triazol-2-y1)pyridin-3-yl)-5-(trifluoromethyl)-1H-pyrazole-4-carboxamide], for which the concentration for half-maximal inhibition (IC50) was above 1 µM and the inhibition at 1 µM was 46%.
On to `N#Cc1cc(NC(=O)c2cnn(Cc3ccc(F)c(Cl)c3)c2C(F)(F)F)cnc1-n1nccn1` [Compound 21, 1-(3-chloro-4-fluorobenzy1)-N-(5-cyano-6-(2H-1,2,3-triazol-2-yl)pyridin-3-yl)-5-(trifluoromethyl)-1H-pyrazole-4-carboxamide], for which the half-inhibitory concentration (IC50) is above 1 µM and the inhibition at 1 µM was 23%.
As to `COc1ncc(NC(=O)c2cnn(Cc3cccc(F)c3)c2C(F)(F)F)cc1Cl` [Compound 22, N-(5-chloro-6-methoxypyridin-3-yl)-1-(3-fluorobenzyl)-5-(trifluoromethyl)-1H-pyrazole-4-carboxamide], the inhibition at 1 µM stood at 41%.
`N#Cc1cc(NC(=O)c2cnn(Cc3cccc(F)c3)c2C2CC2)cnc1-n1nccn1` [Compound 23, N-(5-cyano-6-(2H-1,2,3-triazol-2-yl)pyridin-3-yl)-5-cyclopropyl-1-(3-fluorobenzyl)-1H-pyrazole-4-carboxamide]: the 50% inhibitory concentration (IC50) is above 1 µM and the inhibition at 1 µM was determined as 45%.
Taken in the same sequence, the figures for `O=C(Nc1cnc(-n2nccn2)c(Cl)c1)c1cnn(Cc2cccc(F)c2)c1C(F)(F)F` [Compound 25, N-(5-chloro-6-(2H-1,2,3-triazol-2-yl)pyridin-3-yl)-1-(3-fluorobenzyl)-5-(trifluoromethyl)-1H-pyrazole-4-carboxamide] were below 0.25 µM and 100%.
Turning to `Cc1c(F)cccc1Cn1ncc(C(=O)Nc2cnc(-n3nccn3)c(C#N)c2)c1C(F)(F)F` [Compound 26, N-(5-cyano-6-(2H-1,2,3-triazol-2-yl)pyridin-3-y1)-1-(3-fluoro-2-methylbenzyl)-5-(trifluoromethyl)-1H-pyrazole-4-carboxamide], the IC50 is below 0.25 µM and the inhibition at 1 µM is 100%.
The matching figures for `N#Cc1cc(NC(=O)c2cnn(Cc3cccc(F)c3F)c2C(F)(F)F)cnc1-n1nccn1` [Compound 27, N-(5-cyano-6-(2H-1,2,3-triazol-2-yl)pyridin-3-y1)-1-(2,3-difluorobenzyl)-5-(trifluoromethyl)-1H-pyrazole-4-carboxamide]: below 0.25 µM and 100%.
For `Cc1ccc(F)cc1Cn1ncc(C(=O)Nc2cnc(-n3nccn3)c(C#N)c2)c1C(F)(F)F` [Compound 28, N-(5-cyano-6-(2H-1,2,3-triazol-2-yl)pyridin-3-yl)-1-(5-fluoro-2-methylbenzyl)-5-(trifluoromethyl)-1H-pyrazole-4-carboxamide], the IC50 was in the range of 0.251 to 1 µM and the inhibition at 1 µM was found to be 84%.
Taken in the same sequence, the figures for `N#Cc1cc(NC(=O)c2cnn(Cc3cc(F)ccc3F)c2C(F)(F)F)cnc1-n1nccn1` [Compound 29, N-(5-cyano-6-(2H-1,2,3-triazol-2-yl)pyridin-3-y1)-1-(2,5-difluorobenzyl)-5-(trifluoromethyl)-1H-pyrazole-4-carboxamide] were 0.251 to 1 µM and 70%.
Taken in the same sequence, the figures for `Cc1c(F)cccc1Cn1ncc(C(=O)Nc2cnc(-n3nccn3)c(F)c2)c1C(F)(F)F` [Compound 30, 1-(3-fluoro-2-methylbenzyl)-N-(5-fluoro-6-(2H-1,2,3-triazol-2-yl)pyridin-3-y1)-5-(trifluoromethyl)-1H-pyrazole-4-carboxamide] were 0.251 to 1 µM and 97%.
`Cc1c(F)cccc1Cn1ncc(C(=O)Nc2cnc(-n3nccn3)c(C(F)(F)F)c2)c1C(F)(F)F` [Compound 31, N-(6-(2H-1,2,3-triazol-2-y1)-5-(trifluoromethyl)pyridin-3-y1)-1-(3-fluoro-2-methylbenzy1)-5-(trifluoromethyl)-1H-pyrazole-4-carboxamide]: the IC50 is below 0.25 µM and the inhibition at 1 µM was 95%.
The matching figures for `Cc1c(F)cccc1Cn1ncc(C(=O)Nc2cnc(-n3nccn3)c(Cl)c2)c1C(F)(F)F` [Compound 32, N-(5-chloro-6-(2H-1,2,3-triazol-2-y1)pyridin-3-y1)-1-(3-fluoro-2-methylbenzyl)-5-(trifluoromethyl)-1H-pyrazole-4-carboxamide]: below 0.25 µM and 99%.
The matching figures for `N#Cc1cc(NC(=O)c2cnn(Cc3cccc(F)c3C(F)(F)F)c2C(F)(F)F)cnc1-n1nccn1` [Compound 33, N-(5-cyano-6-(2H-1,2,3-triazol-2-yl)pyridin-3-y1)-1-(3-fluoro-2-(trifluoromethyl)benzy1)-5-(trifluoromethyl)-1H-pyrazole-4-carboxamide]: below 0.25 µM and 99%.
Taken in the same sequence, the figures for `O=C(Nc1cnc(-n2nccn2)c(Cl)c1)c1cnn(Cc2cccc(F)c2Cl)c1C(F)(F)F` [Compound 34, 1-(2-chloro-3-fluorobenzy1)-N-(5-chloro-6-(2H-1,2,3-triazol-2-yl)pyridin-3-yl)-5-(trifluoromethyl)-1H-pyrazole-4-carboxamide] were below 0.25 µM and 99%.
In the case of `COc1cc(F)cc(Cn2ncc(C(=O)Nc3cnc(-n4nccn4)c(C#N)c3)c2C(F)(F)F)c1` [Compound 35, N-(5-cyano-6-(2H-1,2,3-triazol-2-yl)pyridin-3-yl)-1-(3-fluoro-5-methoxybenzyl)-5-(trifluoromethyl)-1H-pyrazole-4-carboxamide], the IC50 was above 1 µM and the inhibition at 1 µM amounted to 42%.
In the case of `N#Cc1cc(NC(=O)c2cnn(Cc3cc(F)cc(F)c3)c2C(F)(F)F)cnc1-n1nccn1` [Compound 36, N-(5-cyano-6-(2H-1,2,3-triazol-2-y1)pyridin-3-yl)-1-(3,5-difluorobenzyl)-5-(trifluoromethyl)-1H-pyrazole-4-carboxamide], the IC50 was in the range of 0.251 to 1 µM and the inhibition at 1 µM came out at 86%.
Taken in the same sequence, the figures for `COc1ncc(NC(=O)c2cnn(Cc3cccc(F)c3Cl)c2C(F)(F)F)cc1Cl` [Compound 37, 1-(2-chloro-3-fluorobenzyl)-N-(5-chloro-6-methoxypyridin-3-y1)-5-(trifluoromethyl)-1H-pyrazole-4-carboxamide] were 0.251 to 1 µM and 81%.
For `N#Cc1cc(NC(=O)c2cnn(Cc3cccc(F)c3Br)c2C(F)(F)F)cnc1-n1nccn1` [Compound 38, 1-(2-bromo-3-fluorobenzy1)-N-(5-cyano-6-(2H-1,2,3-triazol-2-yl)pyridin-3-yl)-5-(trifluoromethyl)-1H-pyrazole-4-carboxamide], the IC50 was below 0.25 µM and the inhibition at 1 µM was determined as 100%.
The matching figures for `COc1c(F)cccc1Cn1ncc(C(=O)Nc2cnc(-n3nccn3)c(C#N)c2)c1C(F)(F)F` [Compound 39, N-(5-cyano-6-(2H-1,2,3-triazol-2-yl)pyridin-3-y1)-1-(3-fluoro-2-methoxybenzyl)-5-(trifluoromethyl)-1H-pyrazole-4-carboxamide]: below 0.25 µM and 100%.
